# Measured values from US7794965B2, “Method of identifying modulators of PP2A methylase” (Signum Biosciences, Inc., priority 2002, dated 2010).
# Like-named read-outs stand apart in the source and are kept apart here.
# How the values were obtained:
# [1] = tested on: PP2A methylation in SH-SY5Y neuroblastoma cells; assay: PP2A methylation in cultured SH-SY5Y cells, western blotting with antibodies 6A3 (total) and 4D9 (methylated); type: cell-based; settings: homocysteine 0, 25, 50, 100, and 200 mM, three hours
# Description: SH-SY5Y cells were propagated in a 1:1 mixture of Eagle's Minimum Essential Medium and Ham's F12 medium supplemented with 10% Fetal Bovine Serum, Penicillin (100 units/ml)/Streptomycin ([…]) and 2 mM L-Glutamine. The flasks were incubated at 37° C. (5% CO2). Media was changed every 4-6 days until the cells were confluent. On confluency, cells were treated with 25-200 mM homocysteine for 3 hours. […] Each membrane was blocked for 1 hr in 5% milk, followed by an hour incubation in antibodies, 6A3 (1:50) and 4D9 (1:25) which recognize total and methylated PP2A, respectively.
# Inhibition of PP2A methylation by homocysteine was determined in cultured cells. Total PP2A and methylated PP2A was determined by western blotting in SH-SY5Y neuroblastoma cells. Homocysteine was added to confluent SH-SY5Y cells to concentrations of […]. Three hours after adding homocysteine the cells were harvested into cold PBS, mixed with SDS sample buffer, and then analyzed by SDS-PAGE and western blotting. To determine total PP2A, the blots were probed with monoclonal antibody 6A3, which recognizes total PP2A. To determine methylated PP2A the blots were probed with monoclonal antibody 4D9, which recognizes methylated but not unmethylated PP2A.
# tau = settings: for CP13 tau phosphorylation, ratio methionine-enriched / not enriched / PHF1 tau phosphorylation, ratio methionine-enriched / not enriched / TG5 total tau, ratio methionine-enriched / not enriched: B6, B12
# Source text: (§1) Male C57BL/J6 mice were obtained from the Jackson Laboratories (Bar Harbor, Me.) at 4 weeks of age. Mice were fed on a vitamin sufficient or a vitamin deficient diet for 9 weeks. All of the vitamin-sufficient diets contained folate, vitamin B6, and vitamin B12. All of the vitamin deficient diets lacked these vitamins. […] Another group was fed a vitamin deficient diet that contained basal levels of methionine (Harlan Teklad TD00428). The same was true for mice on the vitamin-sufficient diet. One group was fed a diet enriched for methionine (Harlan Teklad TD98002) and another was fed standard rodent chow 5001 c (Lab Diets). The mice were allowed free access to both food and water.
# Mice brains were homogenized in 10 times volume/weight buffer containing:
# 62.5 mM Tris-HCl, pH 6.8, 10% (w/v) glycerol, 5% (v/v) [3-mercaptoethanol, 2.3% (w/v) SDS, 100 nM okadaic acid (OA), 1 mM phenylmethylsulfonyl fluoride, and 1 mM EDTA. This is a modified version of the buffer reported by Planel et al. [Planel, 2001 #54]. The homogenates were boiled for 5 mins and then centrifuged for 15 mins at 4° C. in a Fisher micro-centrifuge model 235A. The supernatant was then diluted 1:2 in SDS-sample buffer and loaded on a 12.5% percent SDS-PAGE gel. Gels were run at 200 V, transferred onto PVDF membrane at 100 V for 1 hr. Each membrane was blocked for 1 hr in 5% milk, followed by overnight incubation in antibodies, CP13 (1:200) and PHF1 (1:500) which recognize phosphoserine 202 and phosphoserine 396/404 respectively [Greenberg, 1992 #55; Otvos, 1994 #59] and TG5 (1:1000), which recognizes a phosphorylation independent epitope on tau [Jicha, 1997 #56]. The following day, membranes were washed 5× for 5 mins each with TBS containing tween (TBST) and then incubated with goat anti-mouse IgG horseradish peroxidase coupled secondary antibody, diluted 1:25,000 in 5% milk prepared in TBS, for 1 hr. Following the secondary antibody incubation, the membranes were washed 5× for 10 mins in TBST and developed with ECL plus (Amersham). Signal intensities of X-ray film exposures for each membrane were quantified by scanning densitometry using NIH Image.
# Mice were fed on diets containing or deficient in folate, vitamin B6, and vitamin B12 as described above. Tau phosphorylation was determined in the mice by SDS-PAGE and western blotting using the procedures described above. The western blots were probed using three different tau-specific monoclonal antibodies, as discussed above.
# (§2) The effects of methionine enrichment were determined either in the presence or absence of a deficiency for folate, vitamin B6, and vitamin B12.
# Ratios are given for values obtained from mice fed diets enriched with methionine divided by values obtained from mice fed diets not enriched for methionine.
# Feeding and assays were performed as described above. Hcy, total plasma homocysteine; SAM and SAH values measured in brain homogenates. CP13 and PHF1, tau phosphorylation and TG5, total tau (see data below) body, brain, and heart weights (see data in examples above).
# [2] = for Hcy, total plasma homocysteine, ratio methionine-enriched / not enriched / SAH in brain homogenates, ratio methionine-enriched / not enriched / SAM in brain homogenates, ratio methionine-enriched / not enriched: B6, B12
# Source text: as §1
# SAM and SAH levels were measured by high performance liquid chromatography (HPLC) according to the method described by Fu et al. in “Interrelations between plasma homocysteine and intracellular S-adenosylhomocysteine;” Biochem Biophys Res Commun 271: 47-53 (2000), which is incorporated herein by reference in its entirety particularly in parts pertinent to HPLC assays of SAM and SAH.
# Samples of mouse brain were weighed and homogenized in two times weight/volume of 0.5 HCIO4. Samples were centrifuged at 12,500 g for 5 min and the supernatant was filtered through a 0.22 mm membrane. Aliquots of 25 ml were injected and run on a hypersil […] particle size, c18 (ODS), 250×4.6 mm (Phenomenex) column with an isocratic elution at 1.3 ml/min. The mobile phase consisted of 0.10 mM sodium acetate, 2.4 mM heptanesulfonic acid, 4.2% acetonitrile, and 50 mM sodium perchlorate. The pH was adjusted to 3.5 with 70% perchloric acid.
# Standards were run at five different concentrations: 10,000, 5,000, 2,000, 1,000, and 500 pM for SAM, and 10,000, 5,000, 1,000, 100, and 50 μM for SAH. Linear curves, obtained from the SAM and SAH standards, were used to calculate concentrations of SAM and SAH in the brain homogenates.
# Homocysteine was measured by HPLC in serum samples reduced with tri-n-butylphosphine.
# Serum was prepared from whole blood, which was allowed to clot for 30 min on ice and then centrifuged. Samples were aliquoted, snap frozen and stored at −80° C. for analysis. For analysis, 150 ml of serum was thawed and reduced in a mixture containing 50 ml of 0.1 M potassium borate, 2 mM EDTA, pH 9.5, 0.2 mM mercaptopropionylglycine, and 20 ml of 100 ml/I of tri-n-butylphosphine in dimethylformamide. The reduction was allowed to proceed for 30 min on ice after which samples were mixed with 125 ml of 0.6 M perchloric acid containing 1 mM EDTA and allowed to react at room temperature for 10 min, and then centrifuged at 15500 g for 10 min. 100 ml was withdrawn from the middle of the supernatant and mixed with 200 ml of 0.2M potassium borate, pH 10.5, containing 5 mM EDTA. 100 ml of 1.0 gm Ammonium 7-fluorobenzo-2-oxa-1,3-diazole-4-sulphonate/I.OL 0.2M potassium borate, pH 9.5, was added and the mixture incubated at 60° C. for 60 min. Samples were cooled and then analyzed using HPLC. 10 ml of derivatized sample was used for each injection. Buffer A (0.1 M acetate buffer, pH 4.0, containing 20 ml/I methanol) and Buffer B (0.1 M acetate buffer, pH 6.0, containing 50 ml/I methanol) were run at a flow rate of 1.0 ml/min from A to B over 12.5 min then 2.5 min of B, a 3.0 min gradient back to A and 2.0 min A before next injection. A standard was also analyzed to quantify values of homocysteine. Mercaptopropionylglycine was added to the reduction buffer as an internal standard to monitor any potential loss during reduction.
# Mice were fed on diets containing or deficient in folate, vitamin B6 and B12 as set out above. SAM, SAH and Hcy were determined as described above.
# as §2
# methylation of PP2A = methylation of PP2A (Homo sapiens, UniProt P67775); settings: cited from earlier work
# methylation of PP2A, sequence (P67775 whole entry): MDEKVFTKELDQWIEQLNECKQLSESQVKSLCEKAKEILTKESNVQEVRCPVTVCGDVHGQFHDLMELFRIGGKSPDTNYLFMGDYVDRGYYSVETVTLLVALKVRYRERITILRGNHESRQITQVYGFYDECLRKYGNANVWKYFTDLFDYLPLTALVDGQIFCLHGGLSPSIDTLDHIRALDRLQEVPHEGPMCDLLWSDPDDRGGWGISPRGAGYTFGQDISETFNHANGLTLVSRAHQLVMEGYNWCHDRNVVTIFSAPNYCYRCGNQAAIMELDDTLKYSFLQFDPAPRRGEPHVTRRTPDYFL
# [3] = target: PP2A phosphatase activity (Homo sapiens, UniProt P67775); settings: cited from earlier work
# PP2A phosphatase activity, sequence (P67775 whole entry): as above
# cultured human neurons = settings: Merrick, 1997; cited from earlier work
# [4] = excess methionine added to vitamin-deficient diets
smiles,measurement,setting,value
N[C@@H](CCS)C(=O)O [homocysteine],Total PP2A (antibody 6A3),[1],remained much the same
same,level of methylated PP2A (antibody 4D9),[1],declined dramatically
CSCC[C@H](N)C(=O)O [methionine],"CP13 tau phosphorylation, ratio methionine-enriched / not enriched",tau; diets with folate,1.1
same,"PHF1 tau phosphorylation, ratio methionine-enriched / not enriched",tau; diets with folate,1.2
same,"TG5 total tau, ratio methionine-enriched / not enriched",tau; diets with folate,1.2
same,"CP13 tau phosphorylation, ratio methionine-enriched / not enriched",tau; diets without folate,1
same,"PHF1 tau phosphorylation, ratio methionine-enriched / not enriched",tau; diets without folate,0.9
same,"TG5 total tau, ratio methionine-enriched / not enriched",tau; diets without folate,1
same,effect on tau hyperphosphorylation,tau; [4],did not have a sizeable significant effect
same,"Hcy, total plasma homocysteine, ratio methionine-enriched / not enriched",[2]; diets with folate,1.9
same,"SAH in brain homogenates, ratio methionine-enriched / not enriched",[2]; diets with folate,0.8
same,"SAM in brain homogenates, ratio methionine-enriched / not enriched",[2]; diets with folate,0.9
same,"Hcy, total plasma homocysteine, ratio methionine-enriched / not enriched",[2]; diets without folate,0.9
same,"SAH in brain homogenates, ratio methionine-enriched / not enriched",[2]; diets without folate,1.1
same,"SAM in brain homogenates, ratio methionine-enriched / not enriched",[2]; diets without folate,1.2
same,change in plasma Hcy,[2]; excess methionine added to the normal diet,approximately two-fold increase
same,effect on methylation metabolism,[2]; [4],did not have a sizeable significant effect
C=C1[C@@H](O)[C@@H]2O[C@]3(CC[C@H](/C=C/[C@@H](C)[C@@H]4CC(C)=C[C@@]5(O[C@H](C[C@@](C)(O)C(=O)O)CC[C@H]5O)O4)O3)CC[C@H]2O[C@@H]1[C@@H](O)C[C@H](C)[C@H]1O[C@@]2(CCCCO2)CC[C@H]1C [Okadaic acid],inhibition of methylation of PP2A,methylation of PP2A,potent inhibitor
same,inhibition of PP2A phosphatase activity,[3],potent inhibitor
same,effect on tau and microtubules in cultured human neurons,cultured human neurons,"tau hyperphosphorylation, reduced binding of tau to MTs, MT depolymerization, and axonal degeneration"
